How the values were obtained:
rat [1] = conditions: Fertility (Segment I), Oral, Gavage/Intubation, dose end: 6 GD
rat [2] = conditions: Fertility (Segment I); sprague dawley; Oral; Gavage/Intubation; dose end: 63 day; group: parental; systemic / in life observation / body weight / body weight + systemic / in life observation / body weight / body weight gain + systemic / in…
rat [3] = conditions: Sub-acute repeat dose toxicity, sprague dawley, Oral, Gavage/Intubation, dose end: 1 month, group: systemic
dog [4] = conditions: Chronic toxicity; beagle; Oral; Feed; dose end: 1 year; group: systemic; systemic / pathology microscopic / skeletal muscle / degeneration + systemic / pathology microscopic / skeletal muscle / infiltration …
rabbit [5] = conditions: Prenatal developmental toxicity study, new zealand white, Oral, Gavage/Intubation, dose end: 19 GD
rat [6] = conditions: Multigenerational reproductive toxicity study, other, Oral, Feed, dose end: 2 generation
dog [7] = conditions: Chronic toxicity; beagle; Oral; Feed; dose end: 52 week; group: systemic; systemic / hematology / anemia / anemia - hemolytic + systemic / hematology / platelet / platelet + systemic / in life observation / body …
mouse [8] = conditions: Carcinogenicity; cd1; Oral; Feed; dose end: 78 week; group: systemic; systemic / in life observation / body weight / body weight gain + systemic / organ weight / liver / relative to body weight + systemic / …
rat [9] = conditions: Prenatal developmental toxicity study, sprague dawley, Oral, Gavage/Intubation, dose end: 15 GD
rabbit [10] = conditions: Prenatal developmental toxicity study, new zealand white, Oral, Gavage/Intubation, dose end: 19 GD; remark: listed apart in the source
rat [11] = conditions: Combined chronic toxicity/carcinogenicity, sprague dawley, Oral, [Not Specified], dose end: 104 week, group: systemic
rat [12] = conditions: Combined chronic toxicity/carcinogenicity, sprague dawley, Oral, Feed, dose end: 104 week, group: systemic
rat [13] = conditions: Multigenerational reproductive toxicity study, sprague dawley, Oral, Feed, dose end: 2 generation, group: parental
rat [14] = conditions: Peri- and post-natal toxicity study (Segment III); long evans; Injection; Subcutaneous; dose end: 3 PND; group: developmental; developmental / developmental landmark / vaginal opening / vaginal opening
rat [15] = conditions: Developmental neurotoxicity study, sprague dawley, Oral, Gavage/Intubation, dose end: 105 PND, group: cannot be grouped
mouse [16] = conditions: Subchronic oral toxicity in rodents, b6c3f1, Gavage/Intubation, dose end: 94 day, group: systemic, systemic / pathology microscopic / liver / vacuolization cytoplasmic + systemic / clinical chemistry / alkaline phosphatase (alp/alk) / …
rat [17] = conditions: Subchronic oral toxicity in rodents, sprague dawley, Feed, dose end: 90 day, group: systemic, systemic / pathology gross / sperm measure / sperm count + systemic / pathology gross / sperm measure / sperm motility
dog [18] = conditions: Chronic toxicity, beagle, Oral, Feed, dose end: 104 week, group: systemic
rat [19] = conditions: Prenatal developmental toxicity study, sprague dawley, Oral, Gavage/Intubation, dose end: 20 GD
rat [20] = conditions: Multigenerational reproductive toxicity study, sprague dawley, Oral, [Not Specified], dose end: 2 generation
[21] = group: developmental, developmental / developmental malformation / bladder / [other]
[22] = group: parental, systemic / in life observation / body weight / body weight
[23] = systemic / hematology / hemoglobin distribution width (hdw) / hemoglobin distribution width (hdw) + systemic / hematology / platelet / …
[24] = group: developmental, developmental / developmental malformation / bone / short supernumerary
[25] = group: maternal, systemic / in life observation / body weight / body weight gain + systemic / in life observation / food consumption / food consumption
[26] = group: maternal, systemic / in life observation / body weight / body weight gain + systemic / in life observation / food consumption / food consumption + …
[27] = group: offspring, developmental / offspring survival late / viability index / viability index
[28] = group: offspring, developmental / offspring survival late / viability index / viability index + systemic / in life observation / body weight / offspring (pup…
[29] = group: parental, systemic / organ weight / liver / absolute + systemic / organ weight / liver / relative to body weight + systemic / pathology microscopic / …
[30] = group: developmental, developmental / developmental malformation / bone / delayed ossification + systemic / in life observation / body weight / fetal weight
[31] = group: developmental, developmental / developmental malformation / bone / delayed ossification + systemic / in life observation / body weight / fetal weight + …
[32] = group: maternal, systemic / in life observation / body weight / body weight + systemic / in life observation / body weight / body weight gain + systemic / in…
[33] = group: developmental, developmental / developmental malformation / bone / supernumerary
[34] = group: maternal, systemic / in life observation / body weight / body weight gain + systemic / in life observation / clinical signs / defecation + systemic / …
[35] = systemic / pathology gross / eye / discolored + systemic / pathology microscopic / eye / inflammation + systemic / pathology microscopic / …
[36] = systemic / in life observation / body weight / body weight + systemic / in life observation / body weight / body weight gain
[37] = systemic / in life observation / body weight / body weight gain + systemic / in life observation / body weight / body weight
[38] = developmental / developmental landmark / eye opening / eye opening + developmental / developmental landmark / incisor eruption / incisor …
[39] = developmental / developmental landmark / incisor eruption / incisor eruption + developmental / developmental landmark / eye opening / eye …
[40] = systemic / clinical chemistry / alkaline phosphatase (alp/alk) / alkaline phosphatase (alp/alk) + systemic / organ weight / liver / absolute…
[41] = systemic / pathology microscopic / spleen / hemosiderosis
[42] = group: developmental, developmental / developmental malformation / bone / misaligned + developmental / developmental malformation / mouth / jaw / protruding …
[43] = group: offspring, systemic / in life observation / body weight / offspring (pup) weight
[44] = group: parental, systemic / in life observation / body weight / body weight + systemic / in life observation / clinical signs / [other] + systemic / in life …
[45] = group: reproductive, reproductive / reproductive performance / gestational length / gestational length

## CCN1CCC2(CC1)COc1cc3c(cc12)N(C(=O)c1ccc(-c2ccc(-c4nnc(C)o4)cc2C)cc1)CC3.Cl
Rat [1]; [21]
  LEL: 30 mg/kg/day
  LOAEL: > 30 mg/kg/day
  NEL: 10 mg/kg/day
  NOAEL: ≥ 30 mg/kg/day
Rat [1]; [22]
  LEL: 30 mg/kg/day
  LOAEL: > 30 mg/kg/day
  NEL: 10 mg/kg/day
  NOAEL: ≥ 30 mg/kg/day
Rat [2]
  LEL: 30 mg/kg/day
  LOAEL: > 30 mg/kg/day
  NEL: 10 mg/kg/day
  NOAEL: ≥ 30 mg/kg/day
Rat [3]; [23]
  LOAEL: > 30 mg/kg/day
  NEL: 3 mg/kg/day
  NOAEL: ≥ 30 mg/kg/day
Rat [3]; systemic / hematology / platelet / platelet + systemic / hematology / reticulocyte / reticulocyte
  LEL: 10 mg/kg/day

## Cc1cnc(C2=NC(C)(C(C)C)C(=O)N2)c(C(=O)O)c1 (configuration not stated) [Imazapic]
Dog [4]
  LEL: 137 mg/kg/day
  LOAEL: 137 mg/kg/day
  NEL: < 137 mg/kg/day
  NOAEL: < 137 mg/kg/day
Rabbit [5]; [24]
  LEL: 350 mg/kg/day
  LOAEL: > 700 mg/kg/day
  NEL: 175 mg/kg/day
  NOAEL: ≥ 700 mg/kg/day
Rabbit [5]; [25]
  LEL: 500 mg/kg/day
  LOAEL: 500 mg/kg/day
Rabbit [5]; [26]
  NEL: 350 mg/kg/day
  NOAEL: 350 mg/kg/day

## CS(=O)(=O)c1cc(C(F)(F)F)ccc1C(=O)c1cnoc1C1CC1 [Isoxaflutole]
Rat [6]; [27]
  LEL: 17.4 mg/kg/day
  LOAEL: 17.4 mg/kg/day
Rat [6]; [28]
  NEL: 1.76 mg/kg/day
  NOAEL: 1.76 mg/kg/day
Rat [6]; [29]
  LEL: 17.4 mg/kg/day
  LOAEL: 17.4 mg/kg/day
  NEL: 1.76 mg/kg/day
  NOAEL: 1.76 mg/kg/day
Dog [7]
  LEL: 453 mg/kg/day
  LOAEL: 453 mg/kg/day
  NEL: 44.8 mg/kg/day
  NOAEL: 44.8 mg/kg/day
Mouse [8]
  LEL: 64.4 mg/kg/day
  LOAEL: 64.4 mg/kg/day
  NEL: 3.2 mg/kg/day
  NOAEL: 3.2 mg/kg/day
Rat [9]; [30]
  LEL: 100 mg/kg/day
  LOAEL: 100 mg/kg/day
Rat [9]; [31]
  NEL: 10 mg/kg/day
  NOAEL: 10 mg/kg/day
Rat [9]; [32]
  LEL: 500 mg/kg/day
  LOAEL: 500 mg/kg/day
  NEL: 100 mg/kg/day
  NOAEL: 100 mg/kg/day
Rabbit [10]; [33]
  LEL: 5 mg/kg/day
  LOAEL: 5 mg/kg/day
  NEL: < 5 mg/kg/day
  NOAEL: < 5 mg/kg/day
Rabbit [10]; [34]
  LEL: 100 mg/kg/day
  LOAEL: 100 mg/kg/day
  NEL: 20 mg/kg/day
  NOAEL: 20 mg/kg/day
Rat [11]; systemic / organ weight / liver / absolute + systemic / organ weight / liver / relative to body weight + systemic / pathology gross / liver…
  NEL: 2 mg/kg/day
Rat [11]; [35]
  LEL: 20 mg/kg/day
  LOAEL: 20 mg/kg/day
  NOAEL: 2 mg/kg/day

## COC(=O)c1ccccc1S(=O)(=O)NC(=O)Nc1nc(C)nc(OC)n1 [Metsulfuron-methyl]
Rat [12]; [36]
  LOAEL: 250 mg/kg/day
  NEL: 1.25 mg/kg/day
  NOAEL: 125 mg/kg/day
Rat [12]; systemic / in life observation / body weight / body weight gain + systemic / in life observation / body weight / body weight + systemic / …
  LEL: 25 mg/kg/day
Rat [13]; systemic / in life observation / body weight / body weight gain
  LOAEL: 250 mg/kg/day
Rat [13]; [37]
  LEL: 250 mg/kg/day
  NEL: 25 mg/kg/day
  NOAEL: 25 mg/kg/day

## CC#C[C@]1(O)CC[C@H]2[C@@H]3CCC4=CC(=O)CCC4=C3[C@@H](c3ccc(N(C)C)cc3)C[C@@]21C [Mifepristone]
Rat [14]
  LEL: 200 ppm
  LOAEL: > 600 ppm
  NEL: < 200 ppm
  NOAEL: ≥ 600 ppm

## CC(=O)OC/C=C(C)/C=C/C=C(C)/C=C/C1=C(C)CCCC1(C)C [Retinol acetate]
Rat [15]; [38]
  LOAEL: > 34.4 mg/kg/day
  NOAEL: ≥ 34.4 mg/kg/day
Rat [15]; [39]
  LEL: 8.6 mg/kg/day
  NEL: < 8.6 mg/kg/day

## CO[C@H]1/C=C/O[C@@]2(C)Oc3c(C)c(O)c4c(O)c(c(/C=N/N5CCN(C)CC5)c(O)c4c3C2=O)NC(=O)/C(C)=C\C=C\[C@H](C)[C@H](O)[C@@H](C)[C@@H](O)[C@@H](C)[C@H](OC(C)=O)[C@@H]1C [Rifampicin]
Mouse [16]
  LEL: 100 mg/kg/day
  LOAEL: 100 mg/kg/day
  NEL: < 100 mg/kg/day
  NOAEL: < 100 mg/kg/day

## O=C(O)c1ccc(C(=O)O)cc1 [Terephthalic acid]
Rat [17]
  LEL: 5820 mg/kg/day
  LOAEL: > 5820 mg/kg/day
  NEL: 1180 mg/kg/day
  NOAEL: ≥ 5820 mg/kg/day

## CC(C)N(C(=O)SCC(Cl)=C(Cl)Cl)C(C)C [Tri-allate]
Dog [18]; [40]
  LOAEL: 5 mg/kg/day
  NOAEL: 1.5 mg/kg/day
Dog [18]; [41]
  LEL: 1.5 mg/kg/day
  NEL: < 1.5 mg/kg/day
Rat [19]; [42]
  LEL: 90 mg/kg/day
  LOAEL: 90 mg/kg/day
  NEL: 30 mg/kg/day
  NOAEL: 30 mg/kg/day
Rat [19]; [25]
  LOAEL: 30 mg/kg/day
Rat [19]; [26]
  LEL: 30 mg/kg/day
  NEL: 10 mg/kg/day
  NOAEL: 10 mg/kg/day
Rat [20]; [43]
  LEL: 2.5 mg/kg/day
  NEL: < 2.5 mg/kg/day
  NOAEL: 7.5 mg/kg/day
Rat [20]; group: offspring, systemic / in life observation / body weight / offspring (pup) weight + developmental / offspring survival late / [other] / [other]
  LOAEL: 30 mg/kg/day
Rat [20]; [44]
  LOAEL: 30 mg/kg/day
  NEL: 2.5 mg/kg/day
  NOAEL: 7.5 mg/kg/day
Rat [20]; group: parental, systemic / in life observation / body weight / body weight + systemic / organ weight / ovary / relative to body weight + systemic / organ …
  LEL: 7.5 mg/kg/day
Rat [20]; [45]
  LEL: 30 mg/kg/day
  LOAEL: 30 mg/kg/day
  NEL: 7.5 mg/kg/day
  NOAEL: 7.5 mg/kg/day
